# Experimental data from patent US5330992A, “1-cyclopropyl-4-pyridyl-quinolinones” (priority 1992, dated 1994).
# Read-outs that look alike come from different tables or passages of the source.
# Key:
# human topoisomerase II = molecular target: T1, human topoisomerase II (Homo sapiens, UniProt P11388); assay: Mammalian Topoisomerase II Inhibition Assay (DNA-topo II complex formation); type: biochemical; conditions: read-out: TopoII Inh. EC50
# T1 construct: Topo II was purified from late log phase suspension cultures of HeLa WIS; endogenous in cells; host or cells: HeLa WIS suspension cultures, late log phase (enzyme purified from the cells)
# Protocol: Mammalian Topoisomerase II Inhibition Assay Procedure
# The assay quantitates the amount of topo II covalently complexed by DNA at equilibrium during a topo II reaction. This assay determines the potential of a compound to stabilize this complex, which potential is closely related to the cytotoxicity of the compound.
# Assays (in duplicate) were assembled at 4° C.
# 4 ng 3' end labeled (^32 P) pBR322 DNA (10^7 DMP/μg)
# The assay mix including the test compound was incubated for 20 minutes at 37° C. The reaction was terminated at 37° C. by the addition of 3 μl 10% SDS followed by the addition of 266 μl 10 mM Tris-Cl pH 7.5, 20 μg/ml BSA, 20 μg/ml calf thymus DNA, 1% SDS.
# A SDS/protein precipitate was formed by the addition of 28 μl 2.5M KCl followed by chilling on ice for a minimum of 10 minutes. The precipitate was collected and washed with a Brandell cell harvester on a GFB glass fiber filter membrane as follows. The contents of the assay tube were drawn up into the harvester. The tube was then rinsed 7X with 10 mM Tris-Cl pH 7.5, 1 mM EDTA and 100 mM KCl. […] After drying, CPM was determined by liquid scintillation counting with 5 ml Biofluor (NEN Research Products) or Readisafe (Beckman Instruments Inc.) cocktail.
# This solution then was diluted 1/5 into water and serially thereafter in either 0.02N sodium hydroxide or 0.04N hydrogen chloride, respectively. The stock solution and serial dilution of the test compound was stored at -20° C. prior to testing.
# Screening of test compound--As an initial screen, the test compound was tested at a final concentration of 2, 20 and 200 μg/ml. The compound was then retested at a range of concentrations (usually 2-3X steps) bridging their approximate EC50 's, as estimated by the prescreen.
# Controls--A solvent control which indicates the base level of topo II-DNA complex formed in the absence of the test compound was included in each test. A control, in which topo II was omitted, was included for each test compound at the highest drug concentration tested.
# Reference Agent--A dose response curve with mAMSA at 0.01, 0.08, 0.16, 0.32, 1.0 and 10 μg/ml was included in each test.
# The maximal DNA-topo II complex formed is taken as that equal to that formed at the nearly saturating dose of mAMSA (10 μg/ml).
# [1] = test system: P388 murine leukemia cells; assay: Malignant cell cytotoxicity, one-hour exposure (clonogenic survival in soft agar); type: cell-based; conditions: Mus musculus, 1 hr exposure, read-out: IC50 P388 1 hr. exp.
# Protocol: (§1) Examples of compound I having Topo II activity were tested for malignant cell cytotoxicity. In vitro cytotoxicity was assayed by determining cell survival following exposure of P388 murine leukemia cells to a range of test compound concentrations. Cytotoxicity was quantitated following either a one-hour exposure or continuous exposure of P388 cells to test compound.
# (§2) Cytotoxicity following a one-hour exposure of cells to drug was assayed by quantitating clonogenic cell survival according to a published procedure [Freshney, R. L. (1987) Culture of Animal Cells. A Manual of Basic Technique. Wiley-Liss Inc., New York, N.Y., pp. 140-144]. Briefly, following drug exposure cells were plated in soft agar and incubated (37°, 5% CO2) for 7-10 days during which time viable cells form visible colonies. Cytotoxicity following continuous exposure of cells to test compound was assayed by quantitating total P388 cells on a Coultier Counter following a 48-hour co-incubation of test compound with cells. P388 cells were maintained in log phase throughout the duration of cytotoxicity assays.
# (§3) The percentage of cells surviving relative to an untreated control was graphed as a function of increasing drug concentration.
# [2] = test system: P388 murine leukemia cells; assay: Malignant cell cytotoxicity, continuous 48-hour exposure (Coulter Counter); type: cell-based; conditions: Mus musculus, read-out: IC50 P388 cont. exp.
# Protocol: as §1, §2, §3
# [3] = EC50 = concentration with activity equal to EC50 of reference mAMSA
# T1 sequence (P11388 whole entry): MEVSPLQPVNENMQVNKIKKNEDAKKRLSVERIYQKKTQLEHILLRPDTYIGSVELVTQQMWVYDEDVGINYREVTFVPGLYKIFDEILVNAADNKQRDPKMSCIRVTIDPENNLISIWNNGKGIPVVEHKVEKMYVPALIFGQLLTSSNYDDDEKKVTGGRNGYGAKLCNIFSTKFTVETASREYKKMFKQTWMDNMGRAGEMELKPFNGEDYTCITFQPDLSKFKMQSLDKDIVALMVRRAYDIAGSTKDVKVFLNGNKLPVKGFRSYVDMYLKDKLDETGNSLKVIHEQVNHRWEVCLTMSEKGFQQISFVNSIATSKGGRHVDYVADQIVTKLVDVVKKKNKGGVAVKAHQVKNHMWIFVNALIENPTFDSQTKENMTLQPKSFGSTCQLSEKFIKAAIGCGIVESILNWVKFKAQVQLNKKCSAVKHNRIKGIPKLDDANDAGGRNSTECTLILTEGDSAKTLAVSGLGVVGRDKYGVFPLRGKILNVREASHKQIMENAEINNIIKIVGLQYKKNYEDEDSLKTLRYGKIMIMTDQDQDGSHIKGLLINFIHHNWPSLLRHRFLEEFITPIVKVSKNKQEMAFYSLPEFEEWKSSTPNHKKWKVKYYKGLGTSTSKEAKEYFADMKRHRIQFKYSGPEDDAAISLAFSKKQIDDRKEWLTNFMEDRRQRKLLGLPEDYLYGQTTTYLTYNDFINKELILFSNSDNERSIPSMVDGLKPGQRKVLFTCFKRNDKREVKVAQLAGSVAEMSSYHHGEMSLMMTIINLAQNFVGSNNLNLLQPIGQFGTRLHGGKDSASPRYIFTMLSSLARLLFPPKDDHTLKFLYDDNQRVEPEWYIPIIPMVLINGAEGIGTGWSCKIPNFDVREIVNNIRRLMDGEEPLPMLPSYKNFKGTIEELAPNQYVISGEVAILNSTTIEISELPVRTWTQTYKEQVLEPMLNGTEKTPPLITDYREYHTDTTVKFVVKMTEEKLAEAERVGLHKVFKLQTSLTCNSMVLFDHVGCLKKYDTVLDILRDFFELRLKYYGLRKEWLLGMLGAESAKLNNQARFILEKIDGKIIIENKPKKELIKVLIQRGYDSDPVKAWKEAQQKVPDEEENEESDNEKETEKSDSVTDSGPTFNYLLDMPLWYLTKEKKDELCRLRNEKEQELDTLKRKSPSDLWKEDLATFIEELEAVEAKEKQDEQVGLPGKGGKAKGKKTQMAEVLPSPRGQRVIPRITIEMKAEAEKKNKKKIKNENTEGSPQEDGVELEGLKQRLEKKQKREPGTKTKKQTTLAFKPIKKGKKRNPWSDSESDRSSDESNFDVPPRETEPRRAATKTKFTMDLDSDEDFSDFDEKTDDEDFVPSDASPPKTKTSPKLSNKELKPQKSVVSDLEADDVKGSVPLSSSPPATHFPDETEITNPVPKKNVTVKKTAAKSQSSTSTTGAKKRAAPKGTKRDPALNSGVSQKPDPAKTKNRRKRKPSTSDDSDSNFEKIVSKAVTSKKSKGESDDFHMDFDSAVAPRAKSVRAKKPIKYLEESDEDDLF
Compound,EC50 (human topoisomerase II; [3]) [µM],"EC50 (human topoisomerase II; * Bell-shaped curve, E = extrapolated) [µM]",EC50 (human topoisomerase II; * Bell-shaped curve) [µM],IC50 [1] [µM],IC50 [2] [µM]
"Cc1cc(-c2c(F)cc3c(=O)c(Cc4ccc(F)cc4O)cn(C4CC4)c3c2F)cc(C)n1 [Example 2, 1-cyclopropyl-6,8-difluoro-7-[2,6-dimethyl-4-pyridinyl]-3-[4-fluoro-2-hydroxyphenylmethyl) -4(H)-quinolone]",1,–,–,1.6,–
COc1ccccc1Cc1cn(C2CC2)c2c(F)c(-c3cc(C)nc(C)c3)c(F)cc2c1=O [Example 8],11,–,–,37,6.9
Cc1cc(-c2c(F)cc3c(=O)c(Cc4ccc5c(c4)OCO5)cn(C4CC4)c3c2F)cc(C)n1 [Example 10],–,–,34,–,8.5
Cc1cc(-c2c(F)cc3c(=O)c(Cc4ccncc4)cn(C4CC4)c3c2F)cc(C)n1 [Example 13],9.1,–,–,–,2.3
COc1cc(OC)c(Cc2cn(C3CC3)c3c(F)c(-c4cc(C)nc(C)c4)c(F)cc3c2=O)c(OC)c1 [Example 14],> 190,–,–,–,–
Cc1cc(-c2c(F)cc3c(=O)c(Cc4ccccc4C(=O)O)cn(C4CC4)c3c2F)cc(C)n1 [Example 15],200,–,–,–,–
Cc1cc(-c2c(F)cc3c(=O)c(Cc4ccc[nH]4)cn(C4CC4)c3c2F)cc(C)n1 [Example 16],5.1,–,–,0.93,–
CC(=O)Nc1ccc(Cc2cn(C3CC3)c3c(F)c(-c4cc(C)nc(C)c4)c(F)cc3c2=O)cc1 [Example 19],47,–,–,–,–
Cc1cc(-c2c(F)cc3c(=O)c(Cc4c(CO)cnc(C)c4O)cn(C4CC4)c3c2F)cc(C)n1 [Example 21],4.6,–,–,–,–
Cc1cc(-c2c(F)cc3c(=O)c(Cc4ccccc4NC(=O)C(F)(F)F)cn(C4CC4)c3c2F)cc(C)n1 [Example 22],4.7,–,–,–,–
COc1ccc(OC)c(Cc2cn(C3CC3)c3c(F)c(-c4cc(C)nc(C)c4)c(F)cc3c2=O)c1 [Example 23],20,–,–,–,–
Cc1cc(-c2c(F)cc3c(=O)c(Cc4ccccc4NS(C)(=O)=O)cn(C4CC4)c3c2F)cc(C)n1 [Example 25],3.3,–,–,–,–
"Cc1cc(-c2c(F)cc3c(=O)c(Cc4ccc(O)cc4)cn(C4CC4)c3c2F)cc(C)n1 [Example 27, 1-Cyclopropyl-6,8-difluoro-7-[2,6-dimethyl-4-pyridinyl]-3-[4-hydroxyphenylmethyl]-1,4-dihydro-quinoline-4-one]",1.2,–,–,1.5,0.45
Cc1cc(-c2c(F)cc3c(=O)c(Cc4cc(O)c(O)c(O)c4)cn(C4CC4)c3c2F)cc(C)n1 [Example 29],0.6,–,–,3,8
Cc1cc(-c2c(F)cc3c(=O)c(Cc4cccc(O)c4)cn(C4CC4)c3c2F)cc(C)n1 [Example 31],1.1,–,–,2.2,1.5
Cc1cc(-c2c(F)cc3c(=O)c(Cc4ccc(O)c(O)c4)cn(C4CC4)c3c2F)cc(C)n1 [Example 32],0.16,–,–,0.6,1.4
Cc1cc(-c2c(F)cc3c(=O)c(Cc4ccc(O)c(C)c4O)cn(C4CC4)c3c2F)cc(C)n1 [Example 36],0.2,–,–,–,–
Cc1cc(-c2c(F)cc3c(=O)c(Cc4ccc(N)cc4)cn(C4CC4)c3c2F)cc(C)n1 [Example 39],7.2,–,–,–,–
Cc1cc(-c2c(F)cc3c(=O)c(Cc4ccccc4N)cn(C4CC4)c3c2F)cc(C)n1 [Example 41a],2.1,–,–,–,–

# More lines, main results first:
EC50 (human topoisomerase II; [3]) [µM],"EC50 (human topoisomerase II; * Bell-shaped curve, E = extrapolated) [µM]",EC50 (human topoisomerase II; * Bell-shaped curve) [µM],Compound,IC50 [1] [µM],IC50 [2] [µM]
37,–,–,"COc1cccc(OC)c1Cc1cn(C2CC2)c2c(F)c(-c3cc(C)nc(C)c3)c(F)cc2c1=O [Example 1, 1-Cyclopropyl-6,8-difluoro-7-[2,6-dimethyl-4-pyridinyl]-3-[2,6-dimethoxyphenylmethyl]-1,4-dihydro-quinolin-4-one]",80,20
12,–,–,Cc1cc(-c2c(F)cc3c(=O)c(Cc4ccccn4)cn(C4CC4)c3c2F)cc(C)n1 [Example 4],–,4
> 190,–,–,COc1cc(Cc2cn(C3CC3)c3c(F)c(-c4cc(C)nc(C)c4)c(F)cc3c2=O)cc(OC)c1OC [Example 5],–,18
7.7,–,–,Cc1cc(-c2c(F)cc3c(=O)c(Cc4ccc(Cl)cc4)cn(C4CC4)c3c2F)cc(C)n1 [Example 6],20,6.1
–,14,–,COc1ccc(Cc2cn(C3CC3)c3c(F)c(-c4cc(C)nc(C)c4)c(F)cc3c2=O)cc1 [Example 7],21,14
14,–,–,COc1cccc(Cc2cn(C3CC3)c3c(F)c(-c4cc(C)nc(C)c4)c(F)cc3c2=O)c1 [Example 9],20,6.1
> 210,–,–,COc1cccc(Cc2cn(C3CC3)c3c(F)c(-c4cc(C)nc(C)c4)c(F)cc3c2=O)c1OC [Example 11],–,8.9
> 210,–,–,COc1ccc(Cc2cn(C3CC3)c3c(F)c(-c4cc(C)nc(C)c4)c(F)cc3c2=O)c(OC)c1 [Example 12],> 200,7.4
> 210,–,–,COc1ccc(Cc2cn(C3CC3)c3c(F)c(-c4cc(C)nc(C)c4)c(F)cc3c2=O)c(OC)c1C [Example 17],–,–
1.6,–,–,Cc1cc(-c2c(F)cc3c(=O)c(Cc4c[nH]cn4)cn(C4CC4)c3c2F)cc(C)n1 [Example 24],0.39,–
7.6,–,–,COc1cc(Cc2cn(C3CC3)c3c(F)c(-c4cc(C)nc(C)c4)c(F)cc3c2=O)cc(OC)c1O [Example 28],8.2,4.6
0.36,–,–,Cc1cc(-c2c(F)cc3c(=O)c(Cc4cccc(O)c4O)cn(C4CC4)c3c2F)cc(C)n1 [Example 34],0.88,0.32
0.098,–,–,Cc1cc(-c2c(F)cc3c(=O)c(Cc4c(O)cc(O)cc4O)cn(C4CC4)c3c2F)cc(C)n1 [Example 35],0.47,–
0.15,–,–,Cc1cc(-c2c(F)cc3c(=O)c(Cc4cccc(F)c4O)cn(C4CC4)c3c2F)cc(C)n1 [Example 37],125,–
0.16,–,–,Cc1cc(-c2c(F)cc3c(=O)c(Cc4cc(O)ccc4O)cn(C4CC4)c3c2F)cc(C)n1 [Example 38],0.36,–
5.1,–,–,CC(=O)Nc1ccccc1Cc1cn(C2CC2)c2c(F)c(-c3cc(C)nc(C)c3)c(F)cc2c1=O [Example 41b],–,–
